Key:
Experiment in all cases: Test F preemergence
common ragweed = format: in vivo, Ambrosia elation
From the text: (§1) Seeds of plant species selected from corn (Zea mays), soybean (Glycine max), velvetleaf (Abutilon theophrasti), lambsquarters (Chenopodium album), wild poinsettia (Euphorbia heterophylla), pigweed, palmer (palmer pigweed, Amaranthus palmeri), common waterhemp (Amaranthus rudis), surinam grass (Brachiaria decumbens), large crabgrass (Digitaria sanguinalis), crabgrass, Brazil (Brazilian crabgrass, Digitaria horizontalis), fall panicum (Panicum dichotomiflorum), giant foxtail (Setaria faberii), green foxtail (Setaria viridis), goosegrass (Eleusine indica), johnsongrass (Sorghum halepense), common ragweed (Ambrosia elation), barnyardgrass (Echinochloa crus-galli), southern sandbur (Cenchrus echinatus), arrowleaf sida (Sida rhombifolia), Italian ryegrass (Lolium multiflorum), dayflower, VA (Virginia (VA) dayflower, Commelina virginica), field bindweed (Convolvulus arvensis), cocklebur (common cocklebur, Xanthium strumarium), morningglory (Ipomoea coccinea), nightshade (eastern black nightshade, Solanum ptycanthum), kochia (Kochia scoparia), yellow nutsedge (Cyperus esculentus), and hairy beggarticks (Bidens pilosa), were planted into a silt loam soil and treated preemergence with test chemicals formulated in a non-phytotoxic solvent mixture which included a surfactant.
(§2) At the same time, plants from these crop and weed species and also horseweed (Canada horseweed, Conyza canadensis), smartweed (ladysthumb smartweed, Polygonum persicaria), waterhemp_RES1, (ALS & Triazine resistant common waterhemp, Amaranthus rudis), and waterhemp_RES2, (ALS & HPPD resistant common waterhemp, Amaranthus rudis) were treated with postemergence applications of test chemicals formulated in the same manner. Plants ranged in height from 2 to 18 cm for postemergence treatments (1- to 4-leaf stage). Treated plants and controls were maintained in a greenhouse for 14 to 21 days, after which time all species were compared to controls and visually evaluated. Plant response ratings, summarized in Table F, are based on a scale of 0 to 100 where 0 is no effect and 100 is complete control. A dash (-) response means no test result.

velvetleaf = format: in vivo, Abutilon theophrasti
From the text: as §1, §2

crabgrass, Brazil = format: in vivo, Digitaria horizontalis
From the text: as §1, §2

yellow nutsedge = format: in vivo, Cyperus esculentus
From the text: as §1, §2

[1] = Preemergence, 31 g ai/ha, scale 0 to 100
[2] = Preemergence, 62 g ai/ha, scale 0 to 100
[3] = Preemergence, 125 g ai/ha, scale 0 to 100
[4] = preemergence, 8 g ai/ha, scale 0 to 100, 100 is complete control
[5] = preemergence, 16 g ai/ha, scale 0 to 100, 100 is complete control
[6] = Preemergence, 16 g ai/ha, scale 0 to 100

Structure (SMILES)	Plant response rating, Common Ragweed (common ragweed; [1])	Plant response rating, Common Ragweed (common ragweed; [2])	Plant response rating, Common Ragweed (common ragweed; [3])	Plant response rating, Common Ragweed (common ragweed; [4])	Plant response rating, Common Ragweed (common ragweed; [5])	Plant response rating, Velvetleaf (velvetleaf; [1])	Plant response rating, Velvetleaf (velvetleaf; [2])	Plant response rating, Velvetleaf (velvetleaf; [3])	Plant response rating, Velvetleaf (velvetleaf; [4])	Plant response rating, Velvetleaf (velvetleaf; [5])	Plant response rating, Crabgrass, Brazil (crabgrass, Brazil; [1])	Plant response rating, Crabgrass, Brazil (crabgrass, Brazil; [2])	Plant response rating, Crabgrass, Brazil (crabgrass, Brazil; [3])	Plant response rating, Crabgrass, Brazil (crabgrass, Brazil; [4])	Plant response rating, Crabgrass, Brazil (crabgrass, Brazil; [5])	Plant response rating, Yellow Nutsedge (yellow nutsedge; [1])	Plant response rating, Yellow Nutsedge (yellow nutsedge; [2])	Plant response rating, Yellow Nutsedge (yellow nutsedge; [3])	Plant response rating, Yellow Nutsedge (yellow nutsedge; [4])	Plant response rating, Yellow Nutsedge (yellow nutsedge; [5])	other results
CCOc1cc(C(=O)NCC(F)(F)F)nn1Cc1ccnc(C(F)(F)F)c1 [Compound 104]	95	100	100	0	0	50	95	100	0	0	95	100	100	5	10	25	60	75	0	0	–
CCNC(=O)c1cc(CCCl)n(Cc2ccnc(C(F)(F)F)c2)n1 [Compound 179]	40	65	80	0	–	0	20	40	0	–	75	100	100	0	–	0	10	60	0	–	–
CCNC(=O)c1cc(CC)n(Cc2ccnc(C(F)(F)F)c2)n1 [Compound 196]	–	70	90	0	30	–	20	35	0	0	–	100	100	30	75	–	20	50	0	0	Plant response rating, Common Ragweed (common ragweed; [6]): 65; Plant response rating, Velvetleaf (velvetleaf; preemergence, scale 0 to 100, 100 is complete control): 0; Plant response rating, Crabgrass, Brazil (crabgrass, Brazil; [6]): 100

Source: US20150105252A1, “SUBSTITUTED PYRAZOLES AS HERBICIDES” (E I DU PONT DE NEMOURS AND COMPANY, priority 2013, published 2015)
